According to ChEMBL document CHEMBL3734723, “Synthesis and anticancer activity of 6-heteroarylcoumarins” (2015):

How the values were obtained:
Type in all cases: functional
[1] = Cytotoxicity against human OVCAR8 cells assessed as cell growth at 10 uM incubated for 48 hrs by sulforhodamine B assay; conditions: OVCAR-8, 48 h, read-out: Activity
[2] = Cytotoxicity against human HOP62 cells assessed as cell growth at 10 uM incubated for 48 hrs by sulforhodamine B assay; conditions: HOP-62, 48 h, read-out: Activity
[3] = Cytotoxicity against human DU145 cells assessed as cell growth at 10 uM incubated for 48 hrs by sulforhodamine B assay; conditions: DU-145, 48 h, read-out: Activity
[4] = Cytotoxicity against human COLO205 cells assessed as cell growth at 10 uM incubated for 48 hrs by sulforhodamine B assay; conditions: COLO 205, 48 h, read-out: Activity
[5] = system: MDA-MB-435; assay: Growth inhibition of human MDA-MB-435 cells incubated for 48 hrs by sulforhodamine B assay; conditions: MDA-MB-435, 48 h
[6] = Growth inhibition of human SF295 cells incubated for 48 hrs by sulforhodamine B assay; conditions: SF-295, 48 h
[7] = Growth inhibition of human Caki1 cells incubated for 48 hrs by sulforhodamine B assay; conditions: CAKI-1, 48 h
[8] = system: EKVX; assay: Growth inhibition of human EKVX cells incubated for 48 hrs by sulforhodamine B assay
[9] = system: SK-MEL-28; assay: Cytotoxicity against human SK-MEL-28 cells assessed as cell growth at 10 uM incubated for 48 hrs by sulforhodamine B assay; conditions: SK-MEL-28, 48 h, read-out: Activity
[10] = Growth inhibition of human HL-60(TB) cells incubated for 48 hrs by sulforhodamine B assay; conditions: HL-60, 48 h
[11] = Growth inhibition of human MOLT4 cells incubated for 48 hrs by sulforhodamine B assay; conditions: MOLT-4, 48 h
[12] = Cytotoxicity against human HCC2998 cells assessed as cell growth at 10 uM incubated for 48 hrs by sulforhodamine B assay; conditions: HCC 2998, 48 h, read-out: Activity
[13] = Cytotoxicity against human BT549 cells assessed as cell growth at 10 uM incubated for 48 hrs by sulforhodamine B assay; conditions: BT-549, 48 h, read-out: Activity
[14] = system: SR; assay: Growth inhibition of human SR cells incubated for 48 hrs by sulforhodamine B assay
[15] = Growth inhibition of human OVCAR4 cells incubated for 48 hrs by sulforhodamine B assay; conditions: OVCAR-4, 48 h
[16] = system: K562; assay: Growth inhibition of human K562 cells incubated for 48 hrs by sulforhodamine B assay; conditions: K562, 48 h
[17] = system: SK-MEL-2; assay: Cytotoxicity against human SK-MEL-2 cells assessed as cell growth at 10 uM incubated for 48 hrs by sulforhodamine B assay; conditions: SK-MEL-2, 48 h, read-out: Activity
[18] = Cytotoxicity against human UACC257 cells assessed as cell growth at 10 uM incubated for 48 hrs by sulforhodamine B assay; conditions: UACC-257, 48 h, read-out: Activity
[19] = read-out: LC50 (the source's name)

With `Cc1cc(=O)oc2c(C)c(O)c(-c3ccnc(N)n3)cc12` as the compound, how does the growth at 10 µM [1] read?
Its growth at 10 µM is 48%.

And the growth at 10 µM [2]?
Its growth at 10 µM is 67.8%.

And the growth at 10 µM [3]?
The growth at 10 µM was 66.6%.

What about the growth at 10 µM [4] of the same compound?
Its growth at 10 µM is 46.9%.

And the GI50 [5]?
Its GI50 is greater than 100 µM.

What about the TGI [5] of the same compound?
Its TGI is greater than 100 µM.

And the CC50 [5, 19]?
The CC50 was greater than 100 µM.

And the GI50 [6]?
Its GI50 is 8.74 µM.

What about the TGI [6] of the same compound?
The TGI was greater than 100 µM.

What about the CC50 [6, 19] of the same compound?
Its CC50 is greater than 100 µM.

And the GI50 [7]?
The GI50 was 3.95 µM.

And the TGI [7]?
Its TGI is greater than 100 µM.

And the CC50 [7, 19]?
The CC50 was greater than 100 µM.

And the GI50 [8]?
The GI50 was 48.4 µM.

What about the TGI [8] of the same compound?
The TGI was greater than 100 µM.

And the CC50 [8, 19]?
Its CC50 is greater than 100 µM.

Which growth at 10 µM [9] does the source give for `Cc1cc(=O)oc2c(C)c(O)c(-c3cc4ccc(F)cc4[nH]3)cc12` here?
The growth at 10 µM was 55.3%.

What about the GI50 [10] of the same compound?
Its GI50 is 2.96 µM.

What about the TGI [10] of the same compound?
Its TGI is 9.69 µM.

And the CC50 [10, 19]?
Its CC50 is greater than 100 µM.

And the GI50 [11]?
Its GI50 is 3.27 µM.

And the TGI [11]?
Its TGI is 15 µM.

What about the CC50 [11, 19] of the same compound?
The CC50 was greater than 100 µM.

And the growth at 10 µM [12]?
The growth at 10 µM was 24.9%.

And the growth at 10 µM [13]?
The growth at 10 µM was 47.6%.

And the GI50 [14]?
The GI50 was 3.24 µM.

And the TGI [14]?
Its TGI is 16.9 µM.

What about the CC50 [14, 19] of the same compound?
Its CC50 is greater than 100 µM.

And the GI50 [15]?
The GI50 was 3.99 µM.

And the TGI [15]?
Its TGI is 32.9 µM.

And the CC50 [15, 19]?
Its CC50 is greater than 100 µM.

What about the GI50 [16] of the same compound?
The GI50 was 2.68 µM.

And the TGI [16]?
Its TGI is 23 µM.

And the CC50 [16, 19]?
Its CC50 is greater than 100 µM.

And the growth at 10 µM [17]?
The growth at 10 µM was 19.5%.

What about the growth at 10 µM [18] of the same compound?
The growth at 10 µM was 30.4%.
